Several values for one entry are separate records, joined by “and”; a condition that tells them apart may be missing. Identical values can stand only once. Inconclusive results and toxic doses are left out.
Test system: P388 leukemia ip, CD2F1 mice, survival T/C
Assay: NCI In Vivo Anticancer Drug Screen. Data for tumor model P388 Leukemia (intraperitoneal) in CD2F1 (CDF1) mice
Conditions: endpoint: median survival time, higher = longer survival
Summary of the method: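 Mice carrying the transplanted tumor received test compound or vehicle. Survival was recorded in each group, and the value is the treated-group measurement divided by that of the vehicle-treated control group.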

[1] = dose: 50.0 mg/kg/injection, schedule: Q01DX005 (ip), vehicle: Klucel (hydroxypropylcellulose) (HPC)
[2] = dose: 100.0 mg/kg/injection, schedule: Q01DX005 (ip), vehicle: Klucel (hydroxypropylcellulose) (HPC)
[3] = dose: 200.0 mg/kg/injection, schedule: Q01DX005 (ip), vehicle: Klucel (hydroxypropylcellulose) (HPC)
[4] = dose: 50.0 mg/kg/injection, schedule: Q01DX009 (ip), vehicle: water
[5] = dose: 100.0 mg/kg/injection, schedule: Q01DX009 (ip), vehicle: water
[6] = dose: 200.0 mg/kg/injection, schedule: Q01DX009 (ip), vehicle: water
[7] = dose: 50.0 mg/kg/injection, schedule: Q01DX009 (ip), vehicle: saline with Tween-80
[8] = dose: 100.0 mg/kg/injection, schedule: Q01DX009 (ip), vehicle: saline with Tween-80
[9] = dose: 200.0 mg/kg/injection, schedule: Q01DX009 (ip), vehicle: saline with Tween-80
[10] = dose: 50.0 mg/kg/injection, schedule: Q01DX009 (ip), vehicle: saline
[11] = dose: 100.0 mg/kg/injection, schedule: Q01DX009 (ip), vehicle: saline
[12] = dose: 200.0 mg/kg/injection, schedule: Q01DX009 (ip), vehicle: saline
[13] = dose: 50.0 mg/kg/injection, schedule: Q01DX009 (ip), vehicle: Klucel (hydroxypropylcellulose) (HPC)

## CC12CCC3C(CCC4CC(OC(=O)Cc5ccc(N(CCCl)CCCl)cc5)CCC43C)C1CCC(=O)N2 (centres undefined)
dose: 0.75 mg/kg/injection, schedule: Q01DX009 (ip), vehicle: saline with Tween-80
  T/C: 112 % of control and 117 % of control
dose: 1.5 mg/kg/injection, schedule: Q01DX009 (ip), vehicle: saline with Tween-80
  T/C: 111 % of control and 124 % of control
dose: 6.0 mg/kg/injection, schedule: Q01DX009 (ip), vehicle: saline with Tween-80
  T/C: 169 % of control and 184 % of control
dose: 12.0 mg/kg/injection, schedule: Q01DX009 (ip), vehicle: saline with Tween-80
  T/C: 220 % of control and 237 % of control
dose: 24.0 mg/kg/injection, schedule: Q01DX009 (ip), vehicle: saline with Tween-80
  T/C: 104 % of control and 121 % of control

## CCOC(=O)c1ccccc1N1C(=O)c2ccccc2NP1(=O)Oc1ccccc1 (centres undefined)
dose: 25.0 mg/kg/injection, schedule: Q01DX005 (ip), vehicle: Klucel (hydroxypropylcellulose) (HPC)
  T/C: 106 % of control
[1]
  T/C: 103 % of control
[2]
  T/C: 106 % of control
[3]
  T/C: 98 % of control

## COc1cc(C(=O)OC(CN2CCOCC2)Cn2nnc3c(OC)c(OC)c(OC)cc3c2=O)cc(OC)c1OC (centres undefined)
[4]
  T/C: 100 % of control
[5]
  T/C: 100 % of control
[6]
  T/C: 108 % of control

## CSc1nc(NC2OC(COC(C)=O)C(OC(C)=O)C(OC(C)=O)C2OC(C)=O)c(N=CC=Nc2c(NC3OC(COC(C)=O)C(OC(C)=O)C(OC(C)=O)C3OC(C)=O)nc(SC)[nH]c2=O)c(=O)[nH]1 (centres undefined)
dose: 60.0 mg/kg/injection, schedule: Q01DX005 (ip), vehicle: saline with Tween-80
  T/C: 89 % of control
dose: 120.0 mg/kg/injection, schedule: Q01DX005 (ip), vehicle: saline with Tween-80
  T/C: 99 % of control
dose: 240.0 mg/kg/injection, schedule: Q01DX005 (ip), vehicle: saline with Tween-80
  T/C: 111 % of control

## [S]=[W]=[S]
[7]
  T/C: 98 % of control
[8]
  T/C: 102 % of control
[9]
  T/C: 96 % of control

## Nc1c(Cl)[nH]cnc1=S
dose: 100.0 mg/kg/injection, schedule: Q01DX009 (ip), vehicle: suspension in saline
  T/C: 106 % of control
dose: 200.0 mg/kg/injection, schedule: Q01DX009 (ip), vehicle: suspension in saline
  T/C: 105 % of control
dose: 400.0 mg/kg/injection, schedule: Q01DX009 (ip), vehicle: suspension in saline
  T/C: 99 % of control

## CCNCC(O)c1ccc(F)cc1 (centres undefined)
[10]
  T/C: 101 % of control
[11]
  T/C: 96 % of control
[12]
  T/C: 91 % of control

## CCCCCCOc1cc2c(cc1C(C)c1ccc(OC)cc1)OCO2 (centres undefined)
[1]
  T/C: 103 % of control
[2]
  T/C: 109 % of control
[3]
  T/C: 109 % of control

## [N-]=[N+]=Nc1ccc(Nc2c3ccccc3nc3ccccc23)cc1
dose: 12.5 mg/kg/injection, schedule: Q01DX009 (ip), vehicle: Klucel (hydroxypropylcellulose) (HPC)
  T/C: 112 % of control and 98 % of control
dose: 25.0 mg/kg/injection, schedule: Q01DX009 (ip), vehicle: Klucel (hydroxypropylcellulose) (HPC)
  T/C: 101 % of control and 114 % of control
[13]
  T/C: 117 % of control and 122 % of control

## O=C(CCSCCCl)Nc1c([N+](=O)[O-])cc([N+](=O)[O-])cc1S(=O)(=O)O
dose: 3.13 mg/kg/injection, schedule: Q04DX003 (ip), vehicle: DMSO
  T/C: 104 % of control
dose: 6.25 mg/kg/injection, schedule: Q04DX003 (ip), vehicle: DMSO
  T/C: 99 % of control
dose: 12.5 mg/kg/injection, schedule: Q04DX003 (ip), vehicle: DMSO
  T/C: 111 % of control
dose: 25.0 mg/kg/injection, schedule: Q04DX003 (ip), vehicle: DMSO
  T/C: 124 % of control
dose: 25.0 mg/kg/injection, schedule: Q04DX003 (ip), vehicle: olive oil, sesame oil, peanut oil
  T/C: 118 % of control
dose: 50.0 mg/kg/injection, schedule: Q04DX003 (ip), vehicle: DMSO
  T/C: 118 % of control
dose: 75.0 mg/kg/injection, schedule: Q04DX003 (ip), vehicle: DMSO
  T/C: 118 % of control

## C[CH2][Ge]([CH2]C)[CH2]C.C[CH2][Ge]([CH2]C)[CH2]C.[CH3][Ge][CH3]
[10]
  T/C: 90 % of control
[11]
  T/C: 90 % of control
[12]
  T/C: 92 % of control

## O=C1N=C2SCCN2C1(c1ccccc1)c1ccccc1
dose: 25.0 mg/kg/injection, schedule: Q04DX003 (ip), vehicle: Klucel (hydroxypropylcellulose) (HPC)
  T/C: 100 % of control
dose: 50.0 mg/kg/injection, schedule: Q04DX003 (ip), vehicle: Klucel (hydroxypropylcellulose) (HPC)
  T/C: 100 % of control
dose: 100.0 mg/kg/injection, schedule: Q04DX003 (ip), vehicle: Klucel (hydroxypropylcellulose) (HPC)
  T/C: 92 % of control
dose: 200.0 mg/kg/injection, schedule: Q04DX003 (ip), vehicle: Klucel (hydroxypropylcellulose) (HPC)
  T/C: 109 % of control
dose: 400.0 mg/kg/injection, schedule: Q04DX003 (ip), vehicle: Klucel (hydroxypropylcellulose) (HPC)
  T/C: 103 % of control

## CC1(CC(C)(C)c2ccccc2)OCCO1
dose: 25.0 mg/kg/injection, schedule: Q01DX009 (ip), vehicle: water
  T/C: 96 % of control
[4]
  T/C: 91 % of control
[5]
  T/C: 102 % of control
[6]
  T/C: 93 % of control
dose: 400.0 mg/kg/injection, schedule: Q01DX009 (ip), vehicle: water
  T/C: 104 % of control

## CC(=O)Nc1ccc(OCCOC(=O)Nc2ccc(C)cc2[N+](=O)[O-])cc1
[13]
  T/C: 88 % of control

## S=C(NC1CCCCC1)N1CCC(CCCC2CCN(C(=S)NC3CCCCC3)CC2)CC1
dose: 25.0 mg/kg/injection, schedule: Q04DX003 (ip), vehicle: saline with Tween-80
  T/C: 90 % of control
[7]
  T/C: 90 % of control
dose: 50.0 mg/kg/injection, schedule: Q04DX003 (ip), vehicle: saline with Tween-80
  T/C: 90 % of control
[8]
  T/C: 90 % of control and 95 % of control
dose: 100.0 mg/kg/injection, schedule: Q04DX003 (ip), vehicle: saline with Tween-80
  T/C: 90 % of control
[9]
  T/C: 90 % of control
dose: 200.0 mg/kg/injection, schedule: Q04DX003 (ip), vehicle: saline with Tween-80
  T/C: 90 % of control
dose: 400.0 mg/kg/injection, schedule: Q01DX009 (ip), vehicle: saline with Tween-80
  T/C: 95 % of control
dose: 400.0 mg/kg/injection, schedule: Q04DX003 (ip), vehicle: saline with Tween-80
  T/C: 90 % of control

## C=C1COC(O)(C2OCOC(C3CC(=O)NC(=O)C3)C2O)C1C (centres undefined)
dose: 0.03 mg/kg/injection, schedule: Q01DX009 (ip), vehicle: water
  T/C: 107 % of control
dose: 2.0 micrograms/kg/injection, schedule: Q01DX009 (ip), vehicle: water
  T/C: 119 % of control
dose: 4.0 micrograms/kg/injection, schedule: Q01DX009 (ip), vehicle: water
  T/C: 119 % of control
dose: 7.5 micrograms/kg/injection, schedule: Q01DX009 (ip), vehicle: water
  T/C: 117 % of control
dose: 32.0 micrograms/kg/injection, schedule: Q01DX009 (ip), vehicle: water
  T/C: 181 % of control

## Clc1nc2nc(Cl)c(Cl)n2nc1Cl
dose: 6.25 mg/kg/injection, schedule: Q04DX002 (ip), vehicle: saline
  T/C: 109 % of control
dose: 12.5 mg/kg/injection, schedule: Q04DX002 (ip), vehicle: saline
  T/C: 107 % of control
dose: 25.0 mg/kg/injection, schedule: Q04DX002 (ip), vehicle: saline
  T/C: 106 % of control

## CCCCN(CCCC)CCCCCCCC(O)c1cc2ccccc2c2ccccc12 (centres undefined)
dose: 50.0 mg/kg/injection, schedule: Q01DX005 (ip), vehicle: saline + Tween-80 + alcohol
  T/C: 113 % of control
dose: 100.0 mg/kg/injection, schedule: Q01DX005 (ip), vehicle: saline + Tween-80 + alcohol
  T/C: 110 % of control

## CS(=O)(=O)OCc1cc(=O)c(OS(C)(=O)=O)co1
dose: 50.0 mg/kg/injection, schedule: Q01DX005 (ip), vehicle: saline with Tween-80
  T/C: 108 % of control
dose: 100.0 mg/kg/injection, schedule: Q01DX005 (ip), vehicle: saline with Tween-80
  T/C: 110 % of control
dose: 200.0 mg/kg/injection, schedule: Q01DX005 (ip), vehicle: saline with Tween-80
  T/C: 112 % of control

## Cc1nc2ccccc2c(=O)n1NC(=S)Nc1ccc(Cl)cc1
dose: 100.0 mg/kg/injection, schedule: Q04DX002 (ip), vehicle: saline with Tween-80
  T/C: 90 % of control
dose: 200.0 mg/kg/injection, schedule: Q04DX002 (ip), vehicle: saline with Tween-80
  T/C: 88 % of control
dose: 400.0 mg/kg/injection, schedule: Q04DX002 (ip), vehicle: saline with Tween-80
  T/C: 90 % of control

## N#CC(C#N)/C=C/[Se]c1ccccc1
dose: 100.0 mg/kg/injection, schedule: Q04DX003 (ip), vehicle: saline
  T/C: 104 % of control
dose: 200.0 mg/kg/injection, schedule: Q04DX003 (ip), vehicle: saline
  T/C: 98 % of control
dose: 400.0 mg/kg/injection, schedule: Q04DX003 (ip), vehicle: saline
  T/C: 109 % of control

Source: PubChem BioAssay AID330 (DTP/NCI, 2004)
